Reference: PubChem BioAssay AID2060615 (Molecular Pharmacology Branch, DTP, NCI, 2025)

Test system: 496974-208-R-J2-PDC complex spheroids, growth % test/control
Assay: Anticancer human tumor 496974-208-R-J2-PDC patient-derived pancreatic carcinoma cell line growth inhibition [CLK]
Details: for IC50: curve of first compound; for viability, T/C: stronger effect = lower value; active = viability on the fitted dose curve at most 10% of control; inactive = the rest
How it was run: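 Patient-derived tumor cells grown as complex spheroids with HUVEC endothelial cells and mesenchymal stem cells, treated with drug combinations. Concentrations descend in half-log steps from near clinical Cmax, or from 10 microM if Cmax unknown.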

[1] = second compound 0.0316 µM, first compound 0.0316 µM
[2] = second compound 0.0316 µM, first compound 0.1 µM
[3] = second compound 0.0316 µM, first compound 0.316 µM
[4] = second compound 0.0316 µM, first compound 1 µM
[5] = second compound 0.0316 µM, first compound 3.16 µM
[6] = second compound 0.0316 µM, first compound 10 µM
[7] = second compound 0.1 µM, first compound 0.0316 µM
[8] = second compound 0.1 µM, first compound 0.1 µM
[9] = second compound 0.1 µM, first compound 0.316 µM
[10] = second compound 0.1 µM, first compound 1 µM
[11] = second compound 0.1 µM, first compound 3.16 µM
[12] = second compound 0.1 µM, first compound 10 µM
[13] = second compound 0.316 µM, first compound 0.0316 µM
[14] = second compound 0.316 µM, first compound 0.1 µM
[15] = second compound 0.316 µM, first compound 0.316 µM
[16] = second compound 0.316 µM, first compound 1 µM
[17] = second compound 0.316 µM, first compound 3.16 µM
[18] = second compound 0.316 µM, first compound 10 µM
[19] = second compound 1 µM, first compound 0.0316 µM
[20] = second compound 1 µM, first compound 0.1 µM
[21] = second compound 1 µM, first compound 0.316 µM
[22] = second compound 1 µM, first compound 1 µM
[23] = second compound 1 µM, first compound 3.16 µM
[24] = second compound 1 µM, first compound 10 µM
[25] = second compound 3.16 µM, first compound 0.0316 µM
[26] = second compound 3.16 µM, first compound 0.1 µM
[27] = second compound 3.16 µM, first compound 0.316 µM
[28] = second compound 3.16 µM, first compound 1 µM
[29] = second compound 3.16 µM, first compound 3.16 µM
[30] = second compound 3.16 µM, first compound 10 µM
[31] = second compound 10 µM, first compound 0.0316 µM
[32] = second compound 10 µM, first compound 0.1 µM
[33] = second compound 10 µM, first compound 0.316 µM
[34] = second compound 10 µM, first compound 1 µM
[35] = second compound 10 µM, first compound 3.16 µM
[36] = second compound 10 µM, first compound 10 µM
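Note: spheroids exposed to the drugs for 7 days before readout.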
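Throughout, for viability, T/C: 100% = DMSO vehicle control wells.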

C#Cc1c(F)ccc2cc(O)cc(-c3ncc4c(N5CC6CCC(C5)N6)nc(OCC56CCCN5CC(F)C6)nc4c3F)c12 (centres undefined) + CNC(=O)c1ccc(Nc2nc(OC3CCCC3)c3c(-c4ccc5nc(C)oc5c4)c[nH]c3n2)c(OC)c1
< 31.6 nM: IC50 (second compound 0.316 µM) | IC50 (second compound 1 µM) | IC50 (second compound 3.16 µM) | IC50 (second compound 10 µM)
33.5 nM: IC50 (second compound 0.1 µM)
inactive: viability, T/C [1] 62.4% | viability, T/C [2] 56.8% | viability, T/C [3] 46.1% | viability, T/C [4] 42.2% | viability, T/C [5] 42.9% | viability, T/C [6] 41% | viability, T/C [7] 57.7% | viability, T/C [8] 46.7% | viability, T/C [9] 35% | viability, T/C [10] 37.2% | viability, T/C [11] 34.6% | viability, T/C [12] 43.1% | viability, T/C [13] 45.2% | viability, T/C [14] 40.2% | viability, T/C [15] 37.2% | viability, T/C [16] 33% | viability, T/C [17] 33.5% | viability, T/C [18] 31% | viability, T/C [19] 37.8% | viability, T/C [20] 32.5% | viability, T/C [21] 31.2% | viability, T/C [22] 28.1% | viability, T/C [23] 31.3% | viability, T/C [24] 28.4% | viability, T/C [25] 33.5% | viability, T/C [26] 30.4% | viability, T/C [27] 27.2% | viability, T/C [28] 25.8% | viability, T/C [29] 27.6% | viability, T/C [30] 23.8% | viability, T/C [31] 30.1% | viability, T/C [32] 27.9% | viability, T/C [33] 27% | viability, T/C [34] 22.8% | viability, T/C [35] 23.5% | viability, T/C [36] 21.2%
204 nM: IC50 (second compound 0.0316 µM)

COC1C=CCC(C)C(C)S(=O)(=O)NC(=O)c2ccc3c(c2)N(CC2CCC21)CC1(CCCc2cc(Cl)ccc21)CO3 (centres undefined) + CNC(=O)c1ccc(Nc2nc(OC3CCCC3)c3c(-c4ccc5nc(C)oc5c4)c[nH]c3n2)c(OC)c1
inactive: viability, T/C [1] 103% | viability, T/C [2] 60.8% | viability, T/C [3] 87.7% | viability, T/C [4] 71.9% | viability, T/C [5] 70% | viability, T/C [6] 26.3% | viability, T/C [7] 76.7% | viability, T/C [8] 55.6% | viability, T/C [9] 69.1% | viability, T/C [10] 60.2% | viability, T/C [11] 53.1% | viability, T/C [12] 29.7% | viability, T/C [13] 50.7% | viability, T/C [14] 57.1% | viability, T/C [15] 46.9% | viability, T/C [16] 41.3% | viability, T/C [17] 38.1% | viability, T/C [18] 49.9% | viability, T/C [19] 59.7% | viability, T/C [20] 36.7% | viability, T/C [21] 39.8% | viability, T/C [22] 34.4% | viability, T/C [23] 38% | viability, T/C [24] 30.6% | viability, T/C [25] 53.5% | viability, T/C [26] 36.3% | viability, T/C [27] 35% | viability, T/C [28] 33% | viability, T/C [29] 33.3% | viability, T/C [30] 29.7% | viability, T/C [31] 53.9% | viability, T/C [32] 36.8% | viability, T/C [33] 34.2% | viability, T/C [34] 31.6% | viability, T/C [35] 30.1% | viability, T/C [36] 24.1%
5110 nM: IC50 (second compound 0.0316 µM)
40.4 nM: IC50 (second compound 3.16 µM)
190 nM: IC50 (second compound 0.316 µM)
52.1 nM: IC50 (second compound 1 µM)
40.9 nM: IC50 (second compound 10 µM)
3490 nM: IC50 (second compound 0.1 µM)
